Measured values published in patent publication US6399629B1, “Efflux pump inhibitors” (priority 1998, dated 2002).

Tested on: Pseudomonas aeruginosa PAM1001
Experiment: checkerboard assay (broth microdilution): levofloxacin MIC in presence of efflux pump inhibitor
Assay type: cell-based
Experimental: For compounds labeled with the prefix ‘M’, potentiation effect is observed by the reduction of the minimum inhibitory concentration of levofloxacin in the presence of the experimental efflux pump inhibitor. The activity of efflux pump inhibitors (EPI) in combination with fluoroquinolones, such as levofloxacin, is assessed by the checkerboard assay (Antimicrobial Combinations. In Antibiotics in Laboratory Medicine, Ed. Victor Lorian, M.D., Fourth edition, 1996, pp 333-338) using broth microdilution method performed as recommended by the National Committee for Clinical Laboratory Standards (1997). Methods for Dilution of Antimicrobial Susceptibility Tests for Bacteria That Grow Aerobically—Fourth Edition; Approved Standard. NCCLS Document M7-A4, Vol 17 No.2). The test organism used is Pseudomonas aeruginosa PAM1001. […] The compounds tabulated below are representative of the described invention.
In these assays, multiple dilutions of two drugs, namely the EPI and levofloxacin, are being tested, alone and in combination, at concentrations equal to, above and below their respective minimal inhibitory concentrations (MICs). In the case of EPI, most of these compounds are devoid of intrinsic antimicrobial activity and are tested up to the maximum concentration of 40 μg/mL. The MIC of levofloxacin against P. aeruginosa PAM1001 is 4 μg/mL.
The EPI tested are readily soluble in water and stock solutions are prepared at a final concentration of 2 mg/mL. Stock solutions are further diluted, according to the needs of a particular assay, in Mueller Hinton Broth (MHB). Stock solution can be stored at −80° C. Quinolones are solubilized according to the instructions of the manufacturers, at a concentration of 1 mg/mL. They are then further diluted in MHB. Stock solution can be stored at −80° C.
The checkerboard assay is performed in microtiter plates. Levofloxacin is diluted in the x axis, each column containing a single concentration of levofloxacin. The EPI is diluted in the y axis, each row containing an equal concentration of EPI. The result of these manipulations is that each well of the microtiter plate contains a unique combination of concentrations of the two agents. Each EPI are tested independently.
The assay is performed in MHB with a final bacterial inoculum of 5×10^5 CFU/mL (from an early-log phase culture). Microtiter plates are incubated during 20 h at 35° C. and are read using a microtiter plate reader (Molecular Devices) at 650 nm as well as visual observation using a microtiterplate reading mirror.

| Compound | Levofloxacin MIC Against P. aerugiuosa PAM1001 in Presence of Efflux Pump Inhibitor (EPI), Minimum Inhibitory Concentration (EPI Conc. 0 μg/mL) [µg/mL] | Levofloxacin MIC Against P. aerugiuosa PAM1001 in Presence of Efflux Pump Inhibitor (EPI), Minimum Inhibitory Concentration (EPI Conc. 0.625 μg/mL) [µg/mL] | Levofloxacin MIC Against P. aerugiuosa PAM1001 in Presence of Efflux Pump Inhibitor (EPI), Minimum Inhibitory Concentration (EPI Conc. 1.25 μg/mL) [µg/mL] | Levofloxacin MIC Against P. aerugiuosa PAM1001 in Presence of Efflux Pump Inhibitor (EPI), Minimum Inhibitory Concentration (EPI Conc. 2.5 μg/mL) [µg/mL] | Levofloxacin MIC Against P. aerugiuosa PAM1001 in Presence of Efflux Pump Inhibitor (EPI), Minimum Inhibitory Concentration (EPI Conc. 5 μg/ mL) [µg/mL] | Levofloxacin MIC Against P. aerugiuosa PAM1001 in Presence of Efflux Pump Inhibitor (EPI), Minimum Inhibitory Concentration (EPI Conc. 10 μg/mL) [µg/mL] | Levofloxacin MIC Against P. aerugiuosa PAM1001 in Presence of Efflux Pump Inhibitor (EPI), Minimum Inhibitory Concentration (EPI Conc. 20 μg/mL) [µg/mL] | Levofloxacin MIC Against P. aerugiuosa PAM1001 in Presence of Efflux Pump Inhibitor (EPI), Minimum Inhibitory Concentration (EPI Conc. 40 μg/mL) [µg/mL] |
| --- | --- | --- | --- | --- | --- | --- | --- | --- |
| Cc1cc2nc(C(O)[C@@H](CCc3ccccc3)NC(=O)[C@@H]3C[C@@H](NC(=O)CN)CN3)oc2cc1C (stereo partly shown) [Compound M67] | 4 | 4 | 4 | 4 | 4 | 0.5 | 0.03 | – |
| CN(C(=O)CN)[C@@H]1CN[C@H](C(=O)N[C@H](CCc2ccccc2)C(=O)Nc2cnc3ccccc3c2)C1 [Compound M9] | 4 | 4 | 4 | 4 | 4 | 4 | 2 | 0.06 |
| NCC(=O)N[C@H]1CN[C@H](C(=O)NCc2nc3cc(C(O)c4ccccc4)ccc3[nH]2)C1 (stereo partly drawn) [Compound M82, (2S,4R)-4-(2-Aminoacetamido)-N-[(5-(1-hydroxy-1-phenyl)methyl-2-benzimidazolyl)methyl]-2-pyrrolidinecarboxaniide] | 4 | 4 | 4 | 2 | 1 | 0.25 | 0.125 | 0.06 |
| NC[C@@H]1CN[C@@H](C(=O)NCc2nc3ccc(-c4ccccc4)cc3[nH]2)C1 [Compound M89, (2R,4R)-4-(Aminomethyl)-N-[(5-phenyl-2-benzimidaxolyl)methyl]-2-pyrrolidinecarboxamide] | 4 | 4 | 4 | 4 | 2 | 2 | 0.03 | 0.03 |
| Cc1cc2nc(C(O)[C@@H](CCc3ccccc3)NC(=O)[C@@H]3C[C@@H](NC(=O)[C@@H](C)N)CN3)oc2cc1C (mixture of isomers) [Compound M65, (2S,4R)-4-[(2R)-2-Aminopropionamido]-N-[(1R)-1-[(RS)-(5,6-dimethyl-2-benzoxaaolyl)hydroxymethyl]-3-phenylpropyl]-2-pyrrolidinecarboxamide] | 4 | 4 | 4 | 4 | 4 | 4 | 0.06 | 0.015 |
| (2S,4R)-4-(2-Aminoacetamideo)-N-(2-phenylethyl)-N-(3-quinolylcarbamoyl)ethyl]-2-pyrrolidinecarboxamide [Compound M43] | 4 | 4 | 4 | 2 | 0.25 | 0.125 | 0.125 | 0.06 |
| CC(C)C[C@@H](NC(=O)[C@H]1C[C@H](CN)CN1)C(=O)Nc1cnc2ccccc2c1 [Compound M34, (2R,4R)-4-(Aminomethyl)-N-[(1R)-3-methyl-1-(3-quinolylcarbamoly)butyl]-2-pyrrolidinecarboxamide] | 4 | 4 | 4 | 4 | 4 | 2 | 1 | 0.5 |
| COc1cc(C)c2ncc(NC(=O)[C@@H](CCc3ccccc3)NC(=O)[C@@H]3C[C@@H](NC(=O)CN)CN3)cc2c1 [Compound M22] | 4 | 4 | 4 | 4 | 4 | 0.50 | 0.03 | 0.015 |
| NCC(=O)N[C@H]1CN[C@H](C(=O)N[C@H](CCc2ccccc2)c2nc3ccccc3o2)C1 [Compound M77, (2S,4R)-4-(2-Aminoacetamido)-N-[(1R)-1-(2-benzoxazolyl)-3-pheylpropyl]-2-pyrrolidinexarboxamide] | 4 | 4 | 4 | 4 | 4 | 4 | 2 | 0.125 |
| CC(C)C[C@@H](NC(=O)[C@@H]1C[C@@H](NC(=O)CN)CN1)C(=O)Nc1cnc2ccccc2c1 [Compound M8] | 2 | 2 | 2 | 2 | 2 | 2 | 1 | 0.25 |
